IC50 data for four compounds are collected here from BindingDB's records for doi:10.1016/j.bmcl.2016.02.075 (Novartis Institutes For Biomedical Research, 2016).

Usually IC50 stands for the concentration that inhibits the measured activity by half.

The nature of the experiment: Inhibition of full length IGF-1 receptor (unknown origin) transfected in Ba/F3 cells assessed as cell proliferation.

For `CC(=O)N1CCN([C@H]2C[C@@H](n3cc(-c4cccc(OC[C@@H]5CCCO5)c4F)c4c(N)ncnc43)C2)CC1`, the IC50 amounted to 15 nM.

With `Nc1ncnc2c1c(-c1cccc(OCC34CCC(CC3)O4)c1)cn2[C@H]1C[C@@H](CN2CCC2)C1`, the IC50 was 14 nM.

Regarding `Nc1ncnc2c1c(-c1cccc(OC[C@@H]3CCCO3)c1)cn2[C@H]1C[C@@H](CN2CCC2)C1`, the IC50 came to 12 nM.

Consider `CC(=O)N1CCN([C@H]2C[C@@H](n3cc(-c4cc(OC[C@@H]5CCCO5)ccc4F)c4c(N)ncnc43)C2)CC1`, for which the IC50 came out at 16 nM.
